Results from US20190038674A1, “Formulation for the Treatment of Diabetes” (priority 2013, published 2019).
“And” between values parts separate entries of the source, which are not always exact repeats. Equal entries are not always repeated.

Tests used:
Assay type in all cases: in vivo, Wistar Albino rat
[1] = test system: streptozotocin treated diabetic rats; assay: Residual effect on blood glucose levels of diabetic rats during 15-day residual period after treatment; conditions: residual period after withdrawal, Glyclazide 1.44 mg/200 g
Description: (§1) Day 3 of induction was designed as day 1 for administration of the standard drug glyclazide and cow urine SMP blends to diabetic rats, fasting blood glucose levels measured on days 1, 5, 10 and 15 of the experiment period. Other parameters were determined on after day 15 and residual study was carried out for another 15 days to observe the reappearance diabetes.
(§2) Blood glucose was measured by using Accu-Check Active Glucometer (Roche) and the result was expressed as milligram per deciliter (mg/dl). This instrument is working on the principle of photometry.
Residual effect of standard drug glyclazide group, skim milk powder group and cow urine powder SMP blends groups (100, 200 and 400 mg) for residual of blood glucose levels in streptozotocin treated rats for 15 days and observations were recorded.

[2] = test system: streptozotocin treated diabetic rats; assay: Fasting blood glucose in streptozotocin induced diabetic rats, 15 days of treatment; conditions: for Blood glucose on 15th day: Glyclazide 1.44 mg/200 g body weight, single oral dose daily, day 1 to 15; for Blood glucose on 1st day: before treatment, group later given Glyclazide 1.44 mg/200 g body weight oral daily
Description: Albino Wistar rats of both sex (male and female) were procured from the laboratory of Columbia Institute of Pharmacy Tekari, Raipur 493111 (C.G.), India, and were maintained under a 12 h light/dark cycle and allowed for feed and water without limit. Approved experimental protocol in accordance with the guidelines provided by the committee for the control and supervision of experiments on animals (CPCSEA). The experimental rats were registered by CPCSEA and registration number was 1321/ac/10/CPCSEA.
A. Species: Wistar Albino rat
(§3) Diabetes was induced in rats by the intra peritoneal injection of streptozotocin (Himedia) at a dose of 50 mg/kg body weight dissolved in citrate buffer (0.1 M, pH 4.5) in the volume of 1 ml/kg. The diabetic rats were given 5% w/v glucose solution orally in order to prevent hypoglycemia during the first day after the streptozotocin administration. Three days after the injection (six group), the blood glucose levels were measured and the animals with blood glucose levels above 300 mg/dl were considered as being diabetic and were used in the subsequent experiments. In all the experiments, rats were fasted for 16 hr prior to streptozotocin injection. • a. Total units=202.5 • b. 1 ml=40 units, 0.1 ml=4 units • c. Therefore total units 202.5/40 units=5.06 ml of streptozotocin solution • d. Freshly prepared streptozotocin solution (5.06 ml of solution/36 rats according to body weight) fed as a single dose only once to induce diabetes.
(§4) Experimental rats were divided in 4 groups of 6 rats per group and 4th group further divided in 4 groups with 6 rats in each sub group. The details of treatments were given below:
c. Group 3—Standard drug group—Diabetic animals received daily a single oral dose of the reference drug Glyclazide 1.44 mg/200 g body weight from day 1 to 15. […]
(§5) Blood samples were collected retro-orbitally from the inner canthus of the eye under light ether anesthesia using capillary tubes (Micro Hemocrit Capillariea, Mucaps) as described by Sorg and Buckner (1964); Blood was transferred into fresh vials and serum was separated by centrifuging at 2000 rpm for 2 min. Blood glucose levels were measured using Accu-Check glucose kit.
(§6) To observe the effect of administration of cow urine powder SMP blends and standard drug glyclazide diabetic rats was determined by measuring the fasting blood glucose levels and serum lipid profiles.
as §1, §2

[3] = test system: streptozotocin treated diabetic rats; assay: Serum lipid profile (cholesterol, LDL, HDL, triglyceride) in streptozotocin treated diabetic rats; conditions: for Lipid profile Cholesterol / Lipid profile HDL / Lipid profile LDL / Lipid profile Triglyceride: after 15th day, Glyclazide 1.44 mg/200 g body weight daily
Description: as §3, §4, §5, §6, §1
The serum lipid profile parameters such as cholesterol, HDL, LDL and triglycerides content were studied by using blood serum obtained during the experiments.
Cholesterol content in the blood samples were analyzed by using Bio Chemistry
Analyzer which is working on the principle of Lambert's-Beer's law.
For estimation of triglycerides, Bio-chemistry Analyzer was used.

[4] = starting value, Glyclazide group

SMILES: Cc1ccc(S(=O)(=O)NC(=O)NN2CC3CCCC3C2)cc1 (centres unmarked) [Standard Glyclazide, Glyclazide]
- Blood glucose level 20th Day [1]: 176.50 ± 29.75 mg/dL
- Blood glucose level 25th Day [1]: 174.76 ± 27.42 mg/dL
- Blood glucose level 30th Day [1]: 201.57 ± 29.85 mg/dL
- Blood glucose level 20th Day ([1]; listed as glyclazide): 176.50 mg/dL
- Blood glucose level 25th Day ([1]; listed as glyclazide): 174.76 mg/dL
- Blood glucose level 30th Day ([1]; listed as glyclazide): 201.57 mg/dL
- Blood glucose on 15th day [2]: 125.25 ± 12.33 mg/dL
- Blood glucose on 15th day ([2]; listed as glyclazide): 125.25 mg/dL and 125.2 mg/dL
- Blood glucose on 1st day [2]: 599.16 ± 57.10 mg/dL
- Blood glucose on 1st day ([2]; listed as glyclazide): 599.1 mg/dL
- percent reduce of blood glucose on 15th day ([2]; vs 1st day, Glyclazide 1.44 mg/200 g body weight daily): (79.09%)
- Lipid profile Cholesterol [3]: 67.72 ± 3.37 mg/dL
- Lipid profile HDL [3]: 51.55 ± 1.91 mg/dL
- Lipid profile LDL [3]: 16.17 ± 5.25 mg/dL
- Lipid profile Triglyceride [3]: 95.35 ± 3.10 mg/dL
- Lipid profile Cholesterol ([3]; listed as glyclazide): 67.72 mg/dL
- Lipid profile HDL ([3]; listed as glyclazide): 51.55 mg/dL
- Lipid profile LDL ([3]; listed as glyclazide): 16.17 mg/dL
- Lipid profile Triglyceride ([3]; listed as glyclazide): 95.35 mg/dL
- blood HDL level before treatment (increased from) [3, 4]: 41.75 mg/dL
- blood LDL level before treatment (reduced from) [3, 4]: 83.73 mg/dL
- blood cholesterol level before treatment (reduced from) [3, 4]: 125.44 mg/dL
- triglyceride level before treatment (reduced from) [3, 4]: 187.96 mg/dL
